Reference: patent US20050207984A1, “Formoterol and ciclesonide aerosol formulations” (priority 2002, published 2005)

Assay: Chemical stability, ciclesonide related impurities by HPLC
Assay type: physicochemical
Settings: 5 days at 50° C.
Experimental: MDI units from Example 2 were stored for 5 days at 50° C. in both valve-up and valve-down orientations (two units at each orientation). The samples were then tested for ciclesonide related impurities by High Performance Liquid Chromatography and the following results were obtained: […]

For CC(C)C(=O)OCC(=O)[C@@]12O[C@H](C3CCCCC3)O[C@@H]1C[C@H]1[C@@H]3CCC4=CC(=O)C=C[C@]4(C)[C@H]3[C@@H](O)C[C@@]12C [ciclesonide, 11β, 16α, 17, 21-tetrahydroxypregna 1,4-diene-3,20-dione, cyclic 16,17-acetal with cyclohexanecarboxaldehyde, 21-isobutyrate], the “chemical stability in the example formulation” value was “high degree of chemical stability”.
